Converted amounts (≈) assume the structure as drawn. Where a name gives a salt, the structure may show the parent alone.
What was measured:
KB cells [1] = experiment: Soft-Agar-Colony-Assay with KB cells in vitro; format: cell-based; settings: colony formation inhibited up to 90%, effective criterion EC90 <10 μg/ml; for IC90: Homo sapiens
Description: Tests with KB cells were carried out as a Soft-Agar-Colony-Assay in accordance with Salmon and Hamburger, N. Engl.
(§1) Values exceeding 100 indicate tumor regressions in relation to the starting size of the tumor. […] Values below 0 indicate that the tumor growth was stimulated. KB in vivo represents a tumor model in which KB cells are transplanted subcutaneously into naked NMRI mice. DMBA in vivo represents a tumor model in which tumors of the milk inguinal were induced chemically in female test rats by administering Dimethylbenzanthracen (DMBA). EC90 values which exceed 10 are considered ineffective.

[2] = test system: Leishmania mexicana (promastigotes); experiment: Inhibiting effect on Leishmania mexicana (promastigotes); format: cell-based; settings: partially mean values of two values
Description: Tests measuring the inhibiting effect on Leishmania mexicana (promastigotes) were conducted in accordance with the procedures set forth in R. F. Stieger et al., European Journal of Biochemistry, Vol.105 (1980), pp.163-175 and D. T. Hardt, and F. R. Opperdoes, Molecular and Biochemical Parasitology Vol. 113 (1984), pp. 159-172.
Inhibiting effect on Leishmania mexicana (promastigotes),
indicated as EC90 values (partially mean values of two values)

[3] = test system: tumors of the milk inguinal induced by Dimethylbenzanthracen (DMBA); experiment: DMBA in vivo: tumors of the milk inguinal induced chemically by Dimethylbenzanthracen, growth inhibition index; design: species or system female test rats; settings: orally, >100 = tumor regression
Description: (§2) The substances were administered orally in solution with the help of an esophagus probe (respective dosages in parenthesis).
(§3) Indicated is the growth inhibition index (Wachstumshemmungsindex WHI) in percent which was reached and which can be calculated as follows: [formula] with WC =median tumor weight difference in the reference group based on day 0
(§4) Wt =corresponding value for the treated group
as §1

KB cells [4] = experiment: KB in vivo: KB cells transplanted subcutaneously into naked NMRI mice, growth inhibition index; settings: orally, >100 = tumor regression
Description: as §2, §3, §4, §1

L1210-cell = L1210-cell culture experiment; format: cell-based; settings: 90% growth inhibition in vitro vs control
Excerpt: The EC90 is the concentration of an anti-tumor substance in μg/ml which inhibits the growth of cancer cells by 90% in vitro compared to a control experiment without addition of the anti-tumor substance.

[5] = LD50 on single administration per os in the mouse; settings: in vivo, po

SMILES: CCCCCCCCCCCCCCCCCCOCC(COP(=O)([O-])OCC[As+](C)(C)C)OC (racemic) [Example 24, 1-0-Octadecyl-2-0-methyl-rac-glycerophosphoarsenocholine]
- EC90 (KB cells in vitro) (KB cells [1]): 2.8 µg/mL
- EC90 inhibiting effect on Leishmania mexicana (promastigotes) [2]: 0.9 µg/mL
- EC90 ([2]; molar): 1500 nM
- WHI (DMBA in vivo), growth inhibition index ([3]; 4 × 100 mg/kg): 73%

SMILES: CCCCCCCCCCCCCCCCCCOCC(COP(=O)([O-])OCC[P+](C)(C)C)OC (racemic) [Example 25]
- IC90 (KB cells [1]): 2.7 µg/mL (≈ 4.99 µM)
- EC90 ([2]; Leishmania mexicana): 1.8 µg/mL
- EC90 ([2]; Leishmania mexicana, molar): 3300 ± 370 nM

SMILES: CCCCCCCCCCCCCCCCCCOP(=O)([O-])OCC[As+](C)(C)C [Example 1, 2-[[(Octadecyloxy)hydroxyphosphenyl]oxy]-As,As,As-trimethyl ethyl arsonium inner salt]
- EC90 (KB cells in vitro) (KB cells [1]): 3.2 µg/mL
- EC90 inhibiting effect on Leishmania mexicana (promastigotes) [2]: 0.8 µg/mL
- EC90 ([2]; molar): 1800 nM
- WHI (KB in vivo), growth inhibition index (KB cells [4]; 1 × 511 mg/kg): 42.9%
- WHI (DMBA in vivo), growth inhibition index ([3]; 4 × 100 mg/kg): 112.8%
- EC90 (L1210-cell): 2.9 µg/mL

SMILES: CCCCCCCCCCCCCCCCOP(=O)([O-])OCC[As+](C)(C)C [Example 2, 2-[[(hexadecyloxy)hydroxyphosphinyl]oxy]-As,As,As-trimethyl ethyl arsonium inner salt]
- EC90 (KB cells in vitro) (KB cells [1]): 27 µg/mL

SMILES: CCCCCCCC/C=C\CCCCCCCCCCCCOP(=O)([O-])OCC[As+](C)(C)C [Example 3, 2-[[(cis-13-docosenyloxy)hydroxyphosphinyl]oxy-As,As,As-trimethylethylarsoniuminner salt]
- LD50 [5]: > 1470 mg/kg
- EC90 (KB cells in vitro) (KB cells [1]): > 10 µg/mL

SMILES: CCCCCCCCCCCCCCCCCCOP(=O)([O-])OCC[P+](C)(C)C [Example 4, 2-[[(octadecyloxy)hydroxyphosphinyl]oxy]-P,P,P-trimethyl ethyl phosphonium inner salt]
- IC90 (KB cells [1]): 3.1 µg/mL
- EC90 ([2]; Leishmania mexicana): 0.8 µg/mL
- EC90 ([2]; Leishmania mexicana, molar): 1800 ± 220 nM
- WHI (KB in vivo), growth inhibition index (KB cells [4]; 2 × 316 mg/kg): 111%
- WHI (DMBA in vivo), growth inhibition index ([3]; 4 × 147 mg/kg): 108.7%

SMILES: CCCCCCCCCCCCCCCCOP(=O)([O-])OCC[P+](C)(C)C [Example 5, 2-[[(hexadecyloxy)hydroxyphosphinyl]oxy]-P,P,P-trimethyl ethyl phosphonium inner salt]
- IC90 (KB cells [1]): > 10 µg/mL

SMILES: CCCCCCCC/C=C\CCCCCCCCCCCCOP(=O)([O-])OCC[P+](C)(C)C [Example 6, 2-[[(Cis-13-docosenyloxy) hydroxyphosphinyl]oxy]-P,P,P-trimethylethyl phosphonium inner salt]
- IC90 (KB cells [1]): > 10 µg/mL
- WHI (DMBA in vivo), growth inhibition index ([3]; 4 × 147 mg/kg): 43.9%

SMILES: CCCCCCCCCCCCCCCCCCOP(=O)([O-])OCC[As+](CC)(CC)CC [Example 7, 2-[[(Octadecyloxy)hydroxyphosphinyl]oxy]-As,As,As-triethyl ethyl arsonium inner salt]
- EC90 (KB cells in vitro) (KB cells [1]): 3.0 µg/mL

SMILES: CCCCCCCCCCCCCCCCOP(=O)([O-])OCC[As+](CC)(CC)CC [Example 8, 2-[[(Hexadecyloxy)hydroxyphosphinyl]oxy]-As,As,As-tri-ethyl ethyl arsonium inner salt]
- EC90 (KB cells in vitro) (KB cells [1]): > 10 µg/mL

SMILES: CCCCCCCC/C=C\CCCCCCCCCCCCOP(=O)([O-])OCC[As+](CC)(CC)CC [Example 9, 2-[[Cis-13-docosenyloxy)hydroxyphosphinyl]oxy]-As,As,As-triethylethyl arsonium inner salt]
- EC90 (KB cells in vitro) (KB cells [1]): > 10 µg/mL

SMILES: CCCCCCCCCCCCCCCCCCOP(=O)([O-])OCCC[As+](C)(C)C [Example 10, 3-[[(Octadecyloxy)hydroxyphosphinyl]oxy]-As,As,As-trimethyl propylarsonium inner salt]
- EC90 (KB cells in vitro) (KB cells [1]): 5.8 µg/mL
- WHI (KB in vivo), growth inhibition index (KB cells [4]; 2 × 316 mg/kg): 104%

SMILES: CCCCCCCCCCCCCCCCOP(=O)([O-])OCCC[As+](C)(C)C [Example 11, 3-[[(Hexadecyloxy)hydroxyphosphinyl]oxy]-As,As,As-trimethyl propylarsonium inner salt]
- EC90 (KB cells in vitro) (KB cells [1]): > 10 µg/mL

SMILES: CCCCCCCC/C=C\CCCCCCCCCCCCOP(=O)([O-])OCCC[As+](C)(C)C [Example 12, 3-[[(Cis-13-docosenyloxy)hydroxyphosphinyl]oxy]-As,As,As-trimethylpropyl arsonium inner salt]
- EC90 (KB cells in vitro) (KB cells [1]): > 10 µg/mL

SMILES: CCCCCCCC/C=C\CCCCCCCCCCCCOP(=O)([O-])OCCC[P+](C)(C)C [Example 13, 3-[[(Cis-13-docosenyloxy)hydroxyphosphinyl]oxy]-P,P,P-tri-methylpropyl phosphonium inner salt]
- IC90 (KB cells [1]): > 10 µg/mL

SMILES: CCCCCCCCCCCCCCCCCCOP(=O)([O-])OCCC[P+](C)(C)C [Example 14, 3-[[(Octadecyloxy)hydroxyphosphinyl]oxy]-P,P,P-trimethylpropyl phosphonium inner salt]
- IC90 (KB cells [1]): 3 µg/mL

SMILES: CCCCCCCCCCCCCCCCOP(=O)([O-])OCCC[P+](C)(C)C [Example 15, 3-[[(Hexadecyloxy)hydroxyphosphinyl]oxy]-P,P,P-trimethylpropyl phosphonium inner salt]
- IC90 (KB cells [1]): > 10 µg/mL

SMILES: CCCCCCCCCCCCCCCCCCCOP(=O)([O-])OCC[P+](C)(C)C [Example 16, 3-[[(Nonadecyloxy)hydroxyphosphinyl]oxy]-P,P,P-trimethyl-ethyl phosphonium inner salt]
- IC90 (KB cells [1]): 2.6 µg/mL

SMILES: CCCCCCCCCCCCCCCCCCCCOP(=O)([O-])OCC[P+](C)(C)C [Example 17, 3-[[(Eicosyloxy)hydroxyphosphinyl]oxy]-P,P,P-trimethylethyl phosphonium inner salt]
- IC90 (KB cells [1]): 3 µg/mL

SMILES: CCCCCCCCCCCCCCCCCCCOP(=O)([O-])OCC[As+](C)(C)C [Example 18, 2-[[(Nonadecyloxy)hydroxyphosphinyl]oxy]-As,As,As-trimethethyl arsonium inner salt]
- EC90 (KB cells in vitro) (KB cells [1]): 3.0 µg/mL

SMILES: CCCCCCCCCCCCCCCCCCCCOP(=O)([O-])OCC[As+](C)(C)C [Example 19, 2-[[(Eicosyloxy)hydroxyphosphinyl]oxy]-As,As,As-trimethylethyl arsonium inner salt]
- EC90 (KB cells in vitro) (KB cells [1]): insoluble

SMILES: CCCCCCCCCCCCCCCCCOP(=O)([O-])OCC[As+](C)(C)C [Example 20, 2-[[(Heptadecyloxy)hydroxyphosphinyl]oxy]-As,As,As-trimethylethyl arsonium inner salt]
- EC90 (KB cells in vitro) (KB cells [1]): 3.2 µg/mL

SMILES: CCCCCCCCCCCCCCCCCCOP(=O)([O-])OCC[P+](CC)(CC)c1ccccc1 [Example 21, 2-[[(Octadecyloxy)hydroxyphosphinyl]oxy]-P,P-diethyl-P-phenyl-ethyl phosphonium inner salt]
- IC90 (KB cells [1]): 3.1 µg/mL

SMILES: CCCCCCCC/C=C\CCCCCCCCCCCCOP(=O)([O-])OCC[P+](CC)(CC)c1ccccc1 [Example 22, 2-[[(Cis-13-docosenyloxy)hydroxyphosphinyl]oxy]-P,P-diethyl P-phenyl-ethyl phosphonium inner salt]
- IC90 (KB cells [1]): 3.1 µg/mL

SMILES: CCCCCCCCCCCCC1CCC(COP(=O)([O-])OCC[As+](C)(C)C)CC1 (stereo not drawn) [Example 23, 2-[[(4'-Dodecylcyclohexyl)methyloxy)hydroxyphosphinyl]oxy]As,As,As-trimethylethyl arsonium inner salt]
- EC90 (KB cells in vitro) (KB cells [1]): > 10 µg/mL

— patent US5958906A, “Phospholipid derivatives containing higher elements of the fifth main group” (ASTA-Medica Aktiengesellschaft, priority 1992, dated 1999)
